Measured values: patent US12686665B2, “Bicyclic fused ring derivative or salt thereof and pharmaceutical composition comprising same” (YUHAN CORPORATION, priority 2021, dated 2026)
Structures can show the parent of a compound that is named as a salt.

Assays:
Type in all cases: biochemical
[1] = target: T1, recombinant human Lysyl Oxidase-Like 2 (LOXL2) (Homo sapiens, UniProt Q9Y4K0); assay: Amplex Red HRP-coupled amine oxidase assay, recombinant human LOXL2; details: 60 min incubation with enzyme at 37° C., putrescine substrate, read-out: Inhibitory activity (IC50, nM) human LOXL2
T1 construct: purchased R&D systems
T1 sequence (Q9Y4K0 26-774): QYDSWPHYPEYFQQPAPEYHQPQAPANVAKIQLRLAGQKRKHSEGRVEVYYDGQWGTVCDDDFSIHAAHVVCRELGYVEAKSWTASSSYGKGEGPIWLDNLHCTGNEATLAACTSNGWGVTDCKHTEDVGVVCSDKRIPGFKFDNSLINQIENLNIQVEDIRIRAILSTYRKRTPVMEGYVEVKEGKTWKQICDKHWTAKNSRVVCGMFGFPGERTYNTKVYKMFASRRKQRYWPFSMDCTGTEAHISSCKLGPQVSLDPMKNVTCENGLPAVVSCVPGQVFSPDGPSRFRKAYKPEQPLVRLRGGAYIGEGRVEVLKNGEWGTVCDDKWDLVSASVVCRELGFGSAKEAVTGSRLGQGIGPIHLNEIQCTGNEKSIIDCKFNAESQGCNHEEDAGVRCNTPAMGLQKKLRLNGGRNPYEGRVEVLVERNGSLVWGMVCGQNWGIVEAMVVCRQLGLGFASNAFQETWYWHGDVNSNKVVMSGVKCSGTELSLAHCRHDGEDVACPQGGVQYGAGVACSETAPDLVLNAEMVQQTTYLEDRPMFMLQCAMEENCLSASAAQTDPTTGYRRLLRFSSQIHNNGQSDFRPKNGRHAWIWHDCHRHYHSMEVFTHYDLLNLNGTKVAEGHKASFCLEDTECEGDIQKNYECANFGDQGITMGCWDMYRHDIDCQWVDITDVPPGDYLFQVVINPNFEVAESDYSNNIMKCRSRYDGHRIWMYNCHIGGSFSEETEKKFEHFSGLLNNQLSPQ
How it was run: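 Putrescine substrate (30 mM) in 50 mM sodium phosphate pH 7.4, 37 °C; compounds preincubated 60 min with enzyme, 1% DMSO final, six-point curves. H2O2 detected via 400 μM Amplex Red/2 U/mL HRP, fluorescence (ex 530/em 590 nm) after 1 h; IC50 from four-parameter logistic fit of % signal reduction.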

[2] = target: T2, recombinant human MAO-A (monoamine oxidase-A) (Homo sapiens, UniProt P21397); assay: Amplex Red HRP-coupled amine oxidase assay, recombinant human MAO-A; details: 0.5 mM tyramine substrate, read-out: Inhibitory activity (IC50, nM) MAO-A
T2 construct: purchased Sigma-Aldrich
T2 sequence (P21397 1-527): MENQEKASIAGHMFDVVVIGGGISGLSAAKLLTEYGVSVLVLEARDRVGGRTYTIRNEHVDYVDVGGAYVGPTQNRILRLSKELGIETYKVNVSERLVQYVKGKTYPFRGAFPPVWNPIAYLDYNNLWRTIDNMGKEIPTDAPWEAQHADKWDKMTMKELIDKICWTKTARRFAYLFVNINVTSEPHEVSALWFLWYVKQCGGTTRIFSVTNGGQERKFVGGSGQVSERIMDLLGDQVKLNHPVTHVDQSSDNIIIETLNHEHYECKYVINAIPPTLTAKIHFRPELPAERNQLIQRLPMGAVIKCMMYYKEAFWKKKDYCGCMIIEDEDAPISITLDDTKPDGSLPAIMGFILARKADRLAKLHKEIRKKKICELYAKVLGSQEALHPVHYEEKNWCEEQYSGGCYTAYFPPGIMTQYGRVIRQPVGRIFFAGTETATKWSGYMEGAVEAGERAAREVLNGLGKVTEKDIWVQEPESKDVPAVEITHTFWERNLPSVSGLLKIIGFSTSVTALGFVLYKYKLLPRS
How it was run: (§1)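 Enzyme preincubated 60 min at 37 °C with compound (six-point curve, 1% DMSO final) in 50 mM sodium phosphate pH 7.4, then Amplex Red 400 μM and HRP 2 U/mL added with substrate: MAO-A 0.5 mM tyramine, MAO-B 1 mM benzylamine, DAO 1 mM putrescine. Resorufin fluorescence read after 1 h; IC50 by four-parameter logistic fit.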

[3] = target: T3, recombinant human MAO-B (monoamine oxidase-B) (Homo sapiens, UniProt P27338); assay: Amplex Red HRP-coupled amine oxidase assay, recombinant human MAO-B; details: 1 mM benzylamine substrate, read-out: Inhibitory activity (IC50, nM) MAO-B
T3 construct: purchased Sigma-Aldrich
T3 sequence (P27338 1-520): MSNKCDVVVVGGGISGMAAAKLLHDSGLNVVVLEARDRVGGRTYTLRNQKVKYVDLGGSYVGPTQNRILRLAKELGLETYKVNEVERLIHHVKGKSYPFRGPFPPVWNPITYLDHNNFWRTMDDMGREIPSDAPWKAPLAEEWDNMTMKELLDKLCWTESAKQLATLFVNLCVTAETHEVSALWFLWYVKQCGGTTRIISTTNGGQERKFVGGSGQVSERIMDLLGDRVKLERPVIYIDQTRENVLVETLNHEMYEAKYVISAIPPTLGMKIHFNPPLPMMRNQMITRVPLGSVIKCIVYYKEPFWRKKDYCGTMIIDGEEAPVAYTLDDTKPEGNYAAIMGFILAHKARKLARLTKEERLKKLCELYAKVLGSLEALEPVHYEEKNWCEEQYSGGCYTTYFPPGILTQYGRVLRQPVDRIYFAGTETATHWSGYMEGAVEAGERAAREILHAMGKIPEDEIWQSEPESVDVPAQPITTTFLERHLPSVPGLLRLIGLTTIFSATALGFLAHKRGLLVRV
How it was run: as §1

[4] = target: T4, recombinant human DAO (diamine oxidase) (Homo sapiens, UniProt P19801); assay: Amplex Red HRP-coupled amine oxidase assay, recombinant human DAO; details: 1 mM putrescine substrate, read-out: Inhibitory activity (IC50, nM) DAO
T4 construct: purchased R&D systems
T4 sequence (P19801 20-751): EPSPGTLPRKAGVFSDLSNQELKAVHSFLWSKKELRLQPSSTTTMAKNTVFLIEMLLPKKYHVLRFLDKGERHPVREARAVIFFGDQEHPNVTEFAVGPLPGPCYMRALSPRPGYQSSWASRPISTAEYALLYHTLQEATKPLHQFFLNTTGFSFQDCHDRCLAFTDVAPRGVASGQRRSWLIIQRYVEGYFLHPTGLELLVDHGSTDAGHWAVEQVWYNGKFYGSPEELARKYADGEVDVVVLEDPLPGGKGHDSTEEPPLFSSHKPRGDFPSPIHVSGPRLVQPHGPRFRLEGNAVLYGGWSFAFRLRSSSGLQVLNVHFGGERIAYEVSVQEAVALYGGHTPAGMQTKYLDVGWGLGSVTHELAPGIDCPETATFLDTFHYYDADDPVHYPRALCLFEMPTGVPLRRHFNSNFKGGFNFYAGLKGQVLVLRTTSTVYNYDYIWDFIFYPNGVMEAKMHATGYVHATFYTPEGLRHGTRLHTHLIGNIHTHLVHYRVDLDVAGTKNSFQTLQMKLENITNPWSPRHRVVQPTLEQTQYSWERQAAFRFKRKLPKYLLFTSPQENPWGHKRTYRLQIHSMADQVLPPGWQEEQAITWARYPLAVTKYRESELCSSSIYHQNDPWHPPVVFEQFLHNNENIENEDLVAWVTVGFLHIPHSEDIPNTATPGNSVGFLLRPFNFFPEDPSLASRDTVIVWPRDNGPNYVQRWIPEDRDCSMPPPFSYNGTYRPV
How it was run: as §1

IC50 [1] [nM] | IC50 [2] [nM] | IC50 [3] [nM] | IC50 [4] [nM] | SMILES
60 | 10300 | > 100000 | 2500 | COC(=O)c1cc(-c2cccc(S(=O)(=O)N3CCCC3)c2)c2nc(C)n(C/C(F)=C/CN)c2c1 [Example 70, methyl (Z)-1-(4-amino-2-fluorobut-2-en-1-yl)-2-methyl-4-(3-(pyrrolidin-1-ylsulfonyl)phenyl)-1H-benzo[d]imidazol-6-carboxylate hydrochloride]
58 | 47900 | > 100000 | 1810 | CNS(=O)(=O)c1cccc(-c2cc(C(=O)OC)cc3c2nc(C)n3C/C(F)=C/CN)c1 [Example 73, methyl (Z)-1-(4-amino-2-fluorobut-2-en-1-yl)-2-methyl-4-(3-(N-methylsulfamoyl)phenyl)-1H-benzo[d]imidazol-6-carboxylate hydrochloride]
58 | 12400 | > 100000 | 24600 | Cc1nc2c(-c3cccc(S(=O)(=O)N(C)C)c3)cc(C(=O)N(C)C)cc2n1C/C(F)=C/CN [Example 76, (Z)-1-(4-amino-2-fluorobut-2-en-1-yl)-4-(3-(N,N-dimethylsulfamoyl)phenyl)-N,N,2-trimethyl-1H-benzo[d]imidazol-6-carboxamide hydrochloride]
65 | 65000 | > 100000 | 6690 | CCc1nc2c(-c3cccc(S(=O)(=O)N(C)C)c3)cccc2n1C/C(F)=C/CN [Example 84, (Z)-3-(1-(4-amino-2-fluorobut-2-en-1-yl)-2-ethyl-1H-benzo[d]imidazol-4-yl)-N,N-dimethyl benzenesulfonamide hydrochloride]
17 | 86600 | 12400 | 37400 | COc1ccc(-c2cccc3c2nnn3C/C(F)=C/CN)cc1S(=O)(=O)N(C)C [Example 102, (Z)-5-(1-(4-amino-2-fluorobut-2-en-1-yl)-1H-benzo[d][1,2,3]triazol-4-yl)-2-methoxy-N,N-dimethylbenzenesulfonamide hydrochloride]
25 | 9060 | 23500 | 27900 | NC/C=C(\F)Cn1nnc2c(-c3cccc(S(=O)(=O)N4CCC(F)(F)C4)c3)cccc21 [Example 103, (Z)-4-(4-(3-((3,3-difluoropyrrolidin-1-yl)sulfonyl)phenyl)-1H-benzo[d][1,2,3]triazol-1-yl)-3-fluorobut-2-en-1-amine hydrochloride]
26 | 55100 | > 100000 | 36000 | CNS(=O)(=O)c1ccc(OC)c(-c2cccc3c2nnn3C/C(F)=C/CN)c1 [Example 105, (Z)-3-(1-(4-amino-2-fluorobut-2-en-1-yl)-1H-benzo[d][1,2,3]triazol-4-yl)-4-methoxy-N-methylbenzenesulfonamide hydrochloride]
42 | > 100000 | > 100000 | > 100000 | COc1ccc(S(=O)(=O)NC2CC2)cc1-c1cccc2c1nnn2C/C(F)=C/CN [Example 108, (Z)-3-(1-(4-amino-2-fluorobut-2-en-1-yl)-1H-benzo[d][1,2,3]triazol-4-yl)-N-cyclopropyl-4-methoxybenzenesulfonamide hydrochloride]
35 | > 100000 | > 100000 | 30700 | CNS(=O)(=O)c1cccc(-c2cccc3c2nnn3C/C(F)=C/CN)c1 [Example 111, (Z)-3-(1-(4-amino-2-fluorobut-2-en-1-yl)-1H-benzo[d][1,2,3]triazol-4-yl)-N-methylbenzenesulfonamide hydrochloride]
15 | > 100000 | 26500 | 32100 | CN(C)S(=O)(=O)c1cccc(-c2cccc3c2nnn3C/C(F)=C/CN)c1 [Example 112, (Z)-3-(1-(4-amino-2-fluorobut-2-en-1-yl)-1H-benzo[d][1,2,3]triazol-4-yl)-N,N-dimethylbenzenesulfonamide hydrochloride]
